Assay results as given in patent publication EP4371976B1, “IONIZABLE LIPIDS AND LIPID NANOPARTICLES CONTAINING THEREOF” (Certest Biotec, S.L., priority 2022, dated 2024).

Key:
Female BALB/c mice = assay: Firefly luciferase expression (total flux, IVIS imaging) in mice after injection of mRNA-loaded LNPs; format: in vivo; details: for Total Flux: LNP 50:10:38.5:1.5
Protocol: For in vivo administration, mRNA comprising in the 5' to 3' direction a sequence encoding for luciferase of SEQ ID NO:1, was encapsulated into LNPs following the procedure described in Hassett, K. J. et al., "Optimization of Lipid Nanoparticles for Intramuscular Administration of mRNA Vaccines", 2019, Mol. Ther. Nucleic Acid, vol. 15, pp. 1-11. Briefly, the purified mRNAs were first diluted in sodium citrate buffer at pH=4 at a final concentration of 266 µg/ml. Separately, a mixture of the ionizable lipid of the invention:DSPC (Merk 850365P):cholesterol (Sigma C3045):DMG-PEG2000 (Cayman 33945-1) were dissolved into ethanol at the respective molar percentages of 50:10:38.5:1.5, and with a lipid-nitrogen-to-phosphate ratio (N:P) ratio of 5,5:1.
The mRNA aqueous solution was then carefully added to the ethanol solution, and the resulted solution was homogenized by pipetting up and down for 4-5 times. The resulting LNPs were immediately diluted 1:1 with Tris buffer and dialyzed overnight against Tris buffer containing 15% sucrose. The resulting LNP solution was then collected, and the encapsulated mRNA was assessed by Quant-IT® Ribogreen (Invitrogen R11490) following the manufacturer's instructions.
Female BALB/c mice (Charles River Laboratories), 8-10-week-old, weighting 18-23 g, were acclimatized to new conditions upon arrival to experimental facilities for 3-7 days. Housing conditions were room temperature 20-24 °C, humidity 50-70 %, and light intensity 60 lux with a light-dark cycle of 12 hours.
For Firefly Luciferase activity measurement in mice, LNPs produced as indicated above (ionizable lipid:helper lipid: sterol:PEG-modified lipid → 50:10:38.5:1.5) and containing 5 µg of the indicated mRNA in 50 µl final volume, were injected intramuscularly.
From 4 to 72 hours after RNA-LPN inoculation mice were anaesthetized by inhalation with 4% of isoflurane using a vaporizer. The maintenance of the anaesthesia was performed at 1.5% of isoflurane. Then, D-luciferin (Quimigen, 12507) was injected intraperitoneally at 150 mg/kg, normally ~200 µL of the stock at 15 mg/mL in PBS for a 20 g mouse. Luciferase images were acquired 10 minutes after luciferin inoculation using the IVIS Lumina XRMS Imaging System following manufacturer's instructions.

[1] = RNA encapsulation efficiency of LNPs by Quant-IT Ribogreen; format: physicochemical; details: for Encaps. efficiency (%): LNPs with luciferase mRNA, ionizable lipid:non-cationic lipid:sterol:PEG-modified lipid 50:10:38.5:1.5; for Encaps. efficiency: Table 8, LNP 50:10:38.5:1.5, luciferase mRNA
Procedure, shortened: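 Ribogreen dye assay per manufacturer quantified encapsulated mRNA. Particles were made by adding mRNA in water to the ethanol phase, then 1:1 Tris dilution and overnight dialysis into Tris/15% sucrose; final mRNA set to 100 µg/ml.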

[2] = Size distribution, polydispersity and Z-potential of LNPs by dynamic light scattering (Malvern Zetasizer); format: physicochemical; details: LNPs, standard formulation 50:10:38.5:1.5; DLS
Protocol: The LNP solution was then adjusted to a final concentration of mRNA of 100 µg/ml. Size distribution, polydispersity and Z-potential were measured by dynamic light scattering (DLS) using Malvern Zetasizer Advance Lab Blue Label. RNA encapsulation was assessed by Quant-IT® Ribogreen following the manufacturer's instructions.

[3] = Apparent pKa of LNPs comprising the ionizable lipid (Table 6); details: standard formulation 50:10:38.5:1.5
mice = assay: LNP stability over time: in vivo transfection (total flux) in mice, fresh versus stored at 4 °C; details: LNP 50:10:38.5:1.5
Protocol: Two LNPs comprising: ionizable lipid (Formula I):non-cationic lipid:sterol: PEG-modified lipid
in the ratios 50:10:38.5:1.5 were tested in order to determine their stability. Formulation A comprising VC-LC-0163 as the ionizable lipid was administered to mice and transfection efficiency measured with a fresh preparation in a first experiment, and with a preparation that had been stored for 83 days at T = 4 °C.
Formulation B comprising VC-LC-0263 as the ionizable lipid was administered to mice and transfection efficiency measured with a fresh preparation in a first experiment, and with a preparation that had been stored for 61 days at T = 4 °C.

HEK293T cells = details: reported by Molla et al., cited from earlier work
[4] = Table 8, mice, intramuscular, 5 µg luciferase mRNA in 50 µl
[5] = percentage of RNA entrapped in the LNP

Row | Encaps. efficiency (%) [1, 5] | Encaps. efficiency [1] | P.D.I. [2] | Particle size/ Ø (nm) [2] | Z Potential (± D.E.) [mV] [2] | Apparent pKa [3] | encapsulation efficiency ([1]; Table 6, percentage of RNA entrapped in the LNP, LNP 50:10:38.5:1.5) | SMILES | Total Flux (Female BALB/c mice; [4]) | Total flux (p·s^-1) (mice; t = 0, fresh preparation) | Total flux (p·s^-1) (mice; t = 61 days, stored at 4 °C) | Total Flux (Female BALB/c mice; Table 6, in vivo after injection) | transfection (luminescence) in vivo (Female BALB/c mice; Figure 2, intramuscular injection, LNP 50:10:38.5:1.5 encapsulating luciferase mRNA) | transfection efficiency (HEK293T cells; HEK293T cells, without addition of helper lipids) | toxicity (HEK293T cells; liposomes, in vitro)
1 | 98.61% | 98.61% | 0.12 | 141.7 nm | 1.90 mV | 7.26 |  | CCCCCCCCCCC(CCCCCCCC)C(=O)NC(CCSCCC(=O)OCCCCCC(C)C)C(=O)NCC1CCN(C)CC1 (centres unmarked) [VC-LC-0515] | 3.0E+07 p·s^-1 |  |  |  |  |  | 
2 | 72.06% | 72.1% | 0.17 | 160.8 nm | -3.40 mV | 7.07 |  | CCCCCCCCC(CCCCCC)COC(=O)CCSCCC(NC(=O)C(CCCCCC)CCCCCCCC)C(=O)NCC1CCN(C)CC1 (centres unmarked) [VC-LC-0491] | 2.37E+07 p·s^-1 |  |  |  |  |  | 
3 | 91.49% | 91.49% | 0.13 | 152.6 nm | -2.43 mV | 7.48 |  | CCCCCCCCCCC(CCCCCCCC)C(=O)NC(CCSCCC(=O)OCC(CCCCCC)CCCCCCCC)C(=O)NCC1CCN(C)CC1 (centres unmarked) [VC-LC-0508] | 1.7E+08 p·s^-1 |  |  |  |  |  | 
4 | 50.58% | 50.6% | 0.11 | 155.2 nm | -6.62 mV | 5.95 |  | CCCCCCCCCCC(CCCCCCCC)C(=O)NC(CCSCCC(=O)OCCCCCCCC(C)C)C(=O)NC1CCN(C)CC1 (centres unmarked) [VC-LC-0558] | 7.9E07 p·s^-1 |  |  |  |  |  | 
5 | 76.52% | 76.5% | 0.10 | 167.4 nm | -3.61 mV | 6.75 |  | CCCCCCCCCCCCOC(=O)CCSCCC(C(=O)NC1CCN(C)CC1)C(=O)OC(CCCCCCCC)CCCCCCCC (centres unmarked) [VC-LC-0440] | 2.42E+07 p·s^-1 |  |  |  |  |  | 

More lines, now with the values behind:

Row | SMILES | Encaps. efficiency (%) [1, 5] | Encaps. efficiency [1] | P.D.I. [2] | Particle size/ Ø (nm) [2] | Z Potential (± D.E.) [mV] [2] | Apparent pKa [3] | encapsulation efficiency ([1]; Table 6, percentage of RNA entrapped in the LNP, LNP 50:10:38.5:1.5) | Total Flux (Female BALB/c mice; [4]) | Total flux (p·s^-1) (mice; t = 0, fresh preparation) | Total flux (p·s^-1) (mice; t = 61 days, stored at 4 °C) | Total Flux (Female BALB/c mice; Table 6, in vivo after injection) | transfection (luminescence) in vivo (Female BALB/c mice; Figure 2, intramuscular injection, LNP 50:10:38.5:1.5 encapsulating luciferase mRNA) | transfection efficiency (HEK293T cells; HEK293T cells, without addition of helper lipids) | toxicity (HEK293T cells; liposomes, in vitro)
6 | CCCCCCCCOC(=O)CCSCC(CC(=O)NCCCN1CCOCC1)C(=O)OC(CCCCCCCC)CCCCCCCC (centres unmarked) [VC-LC-0551] | 29.06% | 29.06% | 0.15 | 155.3 nm | -11.66 mV | 6.51 |  | 1.1E+08 p·s^-1 |  |  |  |  |  | 
7 | CCCCCCCCCCCCCCCCOC(=O)CCSCCC(NC(=O)C(CCCCCC)CCCCCCCC)C(=O)NCCCn1ccnc1 (centres unmarked) [VC-LC-0263] | 60.70% |  | 0.13 | 188.6 nm | -17.30 mV |  |  |  | 1.19E+08 p·s^-1 | 5.07E+07 p·s^-1 |  |  |  | 
8 | CCCCCCCCCCCCOC(=O)CCSCC(CC(=O)NCCCn1ccnc1)C(=O)OC(CCCCCCCC)CCCCCCCC (centres unmarked) [VC-LC-0298] | 59.92% | 59.92% | 0.16 | 190.5 nm | -13.51 mV | 6.06 |  | 7.6E+07 p·s^-1 |  |  |  |  |  | 
9 | CCCCCCCCC(CCCCCCCC)OC(=O)C(CSCCC(=O)OCCCCCC)CC(=O)NCCCN1CCOCC1 (centres unmarked) [VC-LC-0550] | 26.96% |  | 0.16 | 173.7 nm | -14.52 mV | 6.53 | 26.96% |  |  |  | 3,4·10^7 p·s^-1 |  |  | 
10 | CCCCCCCCC(CCCCCCCC)OC(=O)C(CSCCC(=O)OCC(CC)CCCC)CC(=O)NCCCn1ccnc1 (centres unmarked) [VC-LC-0297] | 46.94% | 46.9% | 0.18 | 193.3 nm | -11.77 mV | 5.80 |  | 2.3E+07 p·s^-1 |  |  |  |  |  | 
11 | CCCCCCCC/C=C\CCCCCCCCC(=O)CC(CCSSCCCCCCCCCCCC)C(=O)NCCN1CCN(C)CC1 (centres unmarked) [VC-LC-0588] |  |  |  |  |  |  |  |  |  |  |  | no transfection | about 95% | low toxicity
12 | CCCCCCCC/C=C\CCCCCCCCOC(=O)CCSCC(CC(=O)NC1CCN(C)CC1)C(=O)OCC(CCCCCC)CCCCCCCC (centres unmarked) [VC-LC-0539] | 85.33% | 85.3% | 0.13 | 176.7 nm | -1.24 mV | 6.90 |  | 3.6E+07 p·s^-1 |  |  |  |  |  | 
13 | CCCCCCCCC(CCCCCCCC)OC(=O)C(CSCCC(=O)OCCCCCCCC(C)C)CC(=O)NCCCn1ccnc1 (centres unmarked) [VC-LC-0296] | 48.51% | 48.5% | 0.13 | 175.8 nm | -7.19 mV | 5.62 |  | 4.7E+07 p·s^-1 |  |  |  |  |  | 
